Where “and” joins values, the source holds several entries; their conditions need not be identical. Equal values may be shown once. Toxic doses and inconclusive results are not listed. Cut-off read from the data, not from the text of the source: active = T/C of 150% or more; inactive = T/C below 125%.
Tested on: L1210 leukemia ip in BDF1 mice, survival T/C
Experiment: NCI In Vivo Anticancer Drug Screen. Data for tumor model L1210 Leukemia (intraperitoneal) in B6D2F1 (BDF1) mice
Conditions: endpoint: mean survival time, higher = longer survival
Outline: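 Antitumor effect is assessed in tumor-bearing animals. Survival in the compound arm is compared with a vehicle-dosed control arm and expressed as their quotient.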

[1] = dose: 200.0 mg/kg/injection, schedule: Q04DX002 (ip), vehicle: saline with Tween-80
[2] = dose: 400.0 mg/kg/injection, schedule: Q04DX002 (ip), vehicle: saline with Tween-80
[3] = dose: 100.0 mg/kg/injection, schedule: Q01DX009 (ip), vehicle: Klucel (hydroxypropylcellulose) (HPC)
[4] = dose: 200.0 mg/kg/injection, schedule: Q01DX009 (ip), vehicle: Klucel (hydroxypropylcellulose) (HPC)
[5] = dose: 400.0 mg/kg/injection, schedule: Q01DX009 (ip), vehicle: Klucel (hydroxypropylcellulose) (HPC)
[6] = dose: 25.0 mg/kg/injection, schedule: Q04DX003 (ip), vehicle: Klucel (hydroxypropylcellulose) (HPC)
[7] = dose: 50.0 mg/kg/injection, schedule: Q04DX003 (ip), vehicle: Klucel (hydroxypropylcellulose) (HPC)
[8] = dose: 100.0 mg/kg/injection, schedule: Q01DX009 (ip), vehicle: saline with Tween-80
[9] = dose: 100.0 mg/kg/injection, schedule: Q04DX003 (ip), vehicle: saline with Tween-80
[10] = dose: 200.0 mg/kg/injection, schedule: Q01DX009 (ip), vehicle: saline with Tween-80
[11] = dose: 200.0 mg/kg/injection, schedule: Q04DX003 (ip), vehicle: saline with Tween-80
[12] = dose: 400.0 mg/kg/injection, schedule: Q01DX009 (ip), vehicle: saline with Tween-80
[13] = dose: 400.0 mg/kg/injection, schedule: Q04DX003 (ip), vehicle: saline with Tween-80
[14] = dose: 25.0 mg/kg/injection, schedule: Q04DX003 (ip), vehicle: saline
[15] = dose: 50.0 mg/kg/injection, schedule: Q04DX003 (ip), vehicle: saline
[16] = dose: 50.0 mg/kg/injection, schedule: Q01DX001 (ip), vehicle: saline
[17] = dose: 100.0 mg/kg/injection, schedule: Q01DX001 (ip), vehicle: saline
[18] = dose: 200.0 mg/kg/injection, schedule: Q01DX001 (ip), vehicle: saline
[19] = dose: 400.0 mg/kg/injection, schedule: Q01DX001 (ip), vehicle: saline
[20] = dose: 25.0 mg/kg/injection, schedule: Q01DX009 (ip), vehicle: saline
[21] = dose: 50.0 mg/kg/injection, schedule: Q01DX009 (ip), vehicle: saline
[22] = dose: 100.0 mg/kg/injection, schedule: Q04DX003 (ip), vehicle: Klucel (hydroxypropylcellulose) (HPC)
[23] = dose: 200.0 mg/kg/injection, schedule: Q04DX003 (ip), vehicle: Klucel (hydroxypropylcellulose) (HPC)
[24] = dose: 12.5 mg/kg/injection, schedule: Q01DX009 (ip), vehicle: saline
[25] = dose: 100.0 mg/kg/injection, schedule: Q04DX002 (ip), vehicle: Klucel (hydroxypropylcellulose) (HPC)
[26] = dose: 200.0 mg/kg/injection, schedule: Q04DX002 (ip), vehicle: Klucel (hydroxypropylcellulose) (HPC)

Measured: T/C

CCC1=C/C(=C\c2ccc3c(c2)OCO3)C(=O)S1
inactive: [1] 89 % of control | [2] 89 % of control

O=C(O)C1CCCCC1C(=O)N(Cc1ccccc1)Cc1ccccc1 (stereo unspecified)
inactive: [3] 98 % of control | [4] 102 % of control | [5] 90 % of control

CC(=O)c1ccccc1NC(=O)c1ccccc1F
inactive: [3] 98 % of control | [4] 113 % of control | [5] 95 % of control

O=C1c2ccccc2C(=O)N1c1cc(=O)[nH]c(=O)[nH]1
inactive: [6] 111 % of control | [7] 92 % of control

C1=C(c2ccccc2)CCCCC1
inactive: [8] 87 % of control | [9] 95 % of control | [10] 96 % of control | [11] 100 % of control | [12] 99 % of control | [13] 98 % of control

O=C1NC(=O)C([n+]2ccccc2)=C1[O-]
inactive: [14] 110 % of control | [15] 110 % of control | dose: 100.0 mg/kg/injection, schedule: Q04DX003 (ip), vehicle: saline 94 % of control and 100 % of control | dose: 200.0 mg/kg/injection, schedule: Q04DX003 (ip), vehicle: saline 96 % of control

CCCCCc1nc2c(c(=O)n(C)c(=O)n2C)n1C
inactive: [16] 112 % of control | [17] 100 % of control | [18] 102 % of control | [19] 106 % of control

CC1=C[P+](C)(Cc2ccccc2)CC1 (stereo unspecified)
inactive: [17] 100 % of control

c1ccc(SCN(CSc2ccccc2)c2ccccc2)cc1
inactive: [3] 106 % of control | [4] 101 % of control

NC(=O)C(N)CCCN=C(N)N (stereo unspecified)
inactive: dose: 37.5 mg/kg/injection, schedule: Q01DX001 (ip), vehicle: Klucel (hydroxypropylcellulose) (HPC) 103 % of control | dose: 75.0 mg/kg/injection, schedule: Q01DX001 (ip), vehicle: Klucel (hydroxypropylcellulose) (HPC) 116 % of control | dose: 150.0 mg/kg/injection, schedule: Q01DX001 (ip), vehicle: Klucel (hydroxypropylcellulose) (HPC) 100 % of control

CC1(C)C2CCC(CCO)C1C2 (stereo unspecified)
inactive: dose: 12.5 mg/kg/injection, schedule: Q04DX003 (ip), vehicle: saline with Tween-80 92 % of control | [20] 96 % of control | dose: 25.0 mg/kg/injection, schedule: Q04DX003 (ip), vehicle: saline with Tween-80 88 % of control | [21] 92 % of control | dose: 50.0 mg/kg/injection, schedule: Q04DX003 (ip), vehicle: saline with Tween-80 95 % of control | dose: 100.0 mg/kg/injection, schedule: Q01DX009 (ip), vehicle: saline 88 % of control | [9] 92 % of control

Cc1ccc(N=Nc2ccc(C)cc2NC(=O)Nc2ccccc2C(F)(F)F)cc1
inactive: [3] 92 % of control | [4] 90 % of control | [5] 90 % of control

COc1ccccc1NC(=O)OCc1ccco1
inactive: dose: 100.0 mg/kg/injection, schedule: Q01DX009 (ip), vehicle: other 106 % of control | dose: 200.0 mg/kg/injection, schedule: Q01DX009 (ip), vehicle: other 101 % of control | dose: 400.0 mg/kg/injection, schedule: Q01DX009 (ip), vehicle: other 104 % of control

COC(=O)c1c2c(nc3ccccc13)-c1ccccc1C(C)(C)C2OC (stereo unspecified)
inactive: [22] 113 % of control | [23] 102 % of control | dose: 400.0 mg/kg/injection, schedule: Q04DX003 (ip), vehicle: Klucel (hydroxypropylcellulose) (HPC) 101 % of control

COC(=O)C(=CC(Cl)(Cl)Cl)C(=O)OC
inactive: dose: 6.2 mg/kg/injection, schedule: Q01DX009 (ip), vehicle: Klucel (hydroxypropylcellulose) (HPC) 102 % of control | dose: 12.5 mg/kg/injection, schedule: Q01DX009 (ip), vehicle: Klucel (hydroxypropylcellulose) (HPC) 96 % of control | dose: 25.0 mg/kg/injection, schedule: Q01DX009 (ip), vehicle: Klucel (hydroxypropylcellulose) (HPC) 96 % of control | [6] 102 % of control | [7] 97 % of control | dose: 100.0 mg/kg/injection, schedule: Q01DX001 (ip), vehicle: Klucel (hydroxypropylcellulose) (HPC) 101 % of control | [22] 97 % of control | dose: 200.0 mg/kg/injection, schedule: Q01DX001 (ip), vehicle: Klucel (hydroxypropylcellulose) (HPC) 105 % of control | [23] 102 % of control

CC1CC(C)S(=O)(=O)C1 (stereo unspecified)
inactive: [24] 94 % of control | dose: 12.5 mg/kg/injection, schedule: Q04DX003 (ip), vehicle: saline 97 % of control | dose: 25.0 mg/kg/injection, schedule: Q01DX001 (ip), vehicle: saline 104 % of control | [20] 108 % of control | [14] 95 % of control | [16] 104 % of control | [21] 91 % of control | [15] 93 % of control

O=C(c1cccnc1)C1Cc2ccccc2C1=O (stereo unspecified)
inactive: dose: 100.0 mg/kg/injection, schedule: Q04DX003 (ip), vehicle: saline sonified 100 % of control | dose: 200.0 mg/kg/injection, schedule: Q04DX003 (ip), vehicle: saline sonified 96 % of control | dose: 400.0 mg/kg/injection, schedule: Q04DX003 (ip), vehicle: saline sonified 91 % of control

CC(=O)OCC/C(=C/c1cc2ccccc2c2ccccc12)[N+](=O)[O-]
inactive: [17] 100 % of control | [18] 105 % of control | [19] 113 % of control

NC(=O)C(=Cc1ccc([N+](=O)[O-])s1)C(N)=O
inactive: [25] 107 % of control | [26] 112 % of control

O=C(Nc1cc(C(F)(F)F)ccc1Cl)c1ccccc1F
inactive: dose: 100.0 mg/kg/injection, schedule: Q04DX002 (ip), vehicle: saline with Tween-80 102 % of control | [1] 102 % of control | [2] 108 % of control

Cc1cc([N+](=O)[O-])c(Nc2ccc(C)c(Cl)c2)c([N+](=O)[O-])c1
inactive: [25] 93 % of control | [26] 91 % of control | dose: 400.0 mg/kg/injection, schedule: Q04DX002 (ip), vehicle: Klucel (hydroxypropylcellulose) (HPC) 96 % of control

CC1CC(C)(C)[N+]2=C(CCCC2)O1 (stereo unspecified)
inactive: dose: 6.25 mg/kg/injection, schedule: Q01DX009 (ip), vehicle: saline 96 % of control | [24] 94 % of control | [20] 103 % of control

CCOC(=O)CC(=O)N/N=C(/C)C(=O)OCC
inactive: [8] 94 % of control | [9] 97 % of control | [10] 87 % of control | [11] 105 % of control | [12] 97 % of control | [13] 105 % of control
